Measurements published in PMC5218480 (PLoS ONE, 2017).

Test system: MV-4-11 cells
Assay: Gene expression microarray analysis (Affymetrix PrimeView) and GSEA
Assay type: cell-based, human
Design: RFU PODN (11730768_x_at) / Fold change /veh PODN (11730768_x_at) / RFU LINC00158 (11744669_a_at) / Fold change /veh LINC00158 (11744669_a_at) / RFU DUSP10 (11751237_a_at) / Fold change /veh DUSP10 (11751237_a_at) / RFU ID3 (11757404_x_at) / Fold change /veh ID3 (11757404_x_at) / RFU PLEKHG5 (11737974_s_at) / Fold change /veh PLEKHG5 (11737974_s_at) / RFU LRRC4B (11730491_at) / Fold change /veh LRRC4B (11730491_at) / RFU GIMAP4 (11747438_a_at) / Fold change /veh GIMAP4 (11747438_a_at) / RFU KRT8 (11758183_x_at) / Fold change /veh KRT8 (11758183_x_at) / RFU CNN1 (11734310_a_at) / Fold change /veh CNN1 (11734310_a_at) / RFU VPS37D (11726825_at) / Fold change /veh VPS37D (11726825_at) / RFU C10orf10 (11716522_x_at) / Fold change /veh C10orf10 (11716522_x_at) / RFU KIR2DL2 /// KIR2DL4 /// KIR2DL5A /// KIR2DL5B /// KIR2DS1 /// KIR2DS2 /// KIR2DS3 /// KIR2DS4 /// KIR3DL3 /// KIR3DL3 /// KIR3DS1 (11738374_at) / Fold change /veh KIR2DL2 /// KIR2DL4 /// KIR2DL5A /// KIR2DL5B /// KIR2DS1 /// KIR2DS2 /// KIR2DS3 /// KIR2DS4 /// KIR3DL3 /// KIR3DL3 /// KIR3DS1 (11738374_at) / RFU C1QL1 (11718748_at) / Fold change /veh C1QL1 (11718748_at) / RFU TMPRSS4 (11747572_a_at) / Fold change /veh TMPRSS4 (11747572_a_at) / RFU HAMP (11756126_x_at) / Fold change /veh HAMP (11756126_x_at) / RFU RNFT2 (11725882_a_at) / Fold change /veh RNFT2 (11725882_a_at) / RFU NR4A2 (11747474_a_at) / Fold change /veh NR4A2 (11747474_a_at) / RFU ABCC12 (11746883_a_at) / Fold change /veh ABCC12 (11746883_a_at) / RFU TMEM136 (11760407_x_at) / Fold change /veh TMEM136 (11760407_x_at) / RFU CLDN22 /// WWC2 (11732394_at) / Fold change /veh CLDN22 /// WWC2 (11732394_at) / RFU HLA-DPB1 (11760878_x_at) / Fold change /veh HLA-DPB1 (11760878_x_at) / RFU SPINT1 (11716480_a_at) / Fold change /veh SPINT1 (11716480_a_at) / RFU GAP43 (11754022_s_at) / Fold change /veh GAP43 (11754022_s_at) / RFU A4GNT (11735810_at) / Fold change /veh A4GNT (11735810_at) / RFU PRB3 (11715151_x_at) / Fold change /veh PRB3 (11715151_x_at) / RFU TUBB4B (11761932_at) / Fold change /veh TUBB4B (11761932_at) / RFU CAPN14 (11732068_a_at) / Fold change /veh CAPN14 (11732068_a_at) / RFU TMCC2 (11721928_a_at) / Fold change /veh TMCC2 (11721928_a_at) / RFU IRGQ (11745062_a_at) / Fold change /veh IRGQ (11745062_a_at) / RFU FAM174B (11720279_a_at) / Fold change /veh FAM174B (11720279_a_at) / RFU TMPRSS4 (11748680_a_at) / Fold change /veh TMPRSS4 (11748680_a_at) / RFU FAM212B (11763350_a_at) / Fold change /veh FAM212B (11763350_a_at) / RFU PLEKHG5 (11743358_a_at) / Fold change /veh PLEKHG5 (11743358_a_at) / RFU ZSCAN30 (11745921_a_at) / Fold change /veh ZSCAN30 (11745921_a_at) / RFU CMKLR1 (11741424_a_at) / Fold change /veh CMKLR1 (11741424_a_at) / RFU LOC101060620 /// MAPK8IP1 (11723275_at) / Fold change /veh LOC101060620 /// MAPK8IP1 (11723275_at) / RFU SPTSSB (11747773_x_at) / Fold change /veh SPTSSB (11747773_x_at) / RFU PRSS12 (11739890_at) / Fold change /veh PRSS12 (11739890_at) / RFU BIN1 (11741810_x_at) / Fold change /veh BIN1 (11741810_x_at) / RFU WNT11 (11732464_a_at) / Fold change /veh WNT11 (11732464_a_at) / RFU C10orf10 (11716521_a_at) / Fold change /veh C10orf10 (11716521_a_at) / RFU C5orf56 (11738089_at) / Fold change /veh C5orf56 (11738089_at) / RFU CYB561 (11721691_x_at) / Fold change /veh CYB561 (11721691_x_at) / RFU ANKRD19P (11752326_a_at) / Fold change /veh ANKRD19P (11752326_a_at) / RFU OR2T12 /// OR2T33 /// OR2T8 (11738714_s_at) / Fold change /veh OR2T12 /// OR2T33 /// OR2T8 (11738714_s_at) / RFU VCAN (11748164_a_at) / Fold change /veh VCAN (11748164_a_at) / RFU JSRP1 (11732532_at) / Fold change /veh JSRP1 (11732532_at) / RFU KRTAP10-11 (11738290_x_at) / Fold change /veh KRTAP10-11 (11738290_x_at) / RFU MYO3A (11730013_a_at) / Fold change /veh MYO3A (11730013_a_at) / RFU EBF3 (11725865_a_at) / Fold change /veh EBF3 (11725865_a_at) / RFU CAMK2N1 (11719241_x_at) / Fold change /veh CAMK2N1 (11719241_x_at) / RFU C5orf56 (11738088_a_at) / Fold change /veh C5orf56 (11738088_a_at) / RFU OLFML3 (11715873_a_at) / Fold change /veh OLFML3 (11715873_a_at) / RFU LOC100653217 /// NTM (11731650_a_at) / Fold change /veh LOC100653217 /// NTM (11731650_a_at) / RFU MAPK11 (11762145_a_at) / Fold change /veh MAPK11 (11762145_a_at) / RFU FIZ1 (11724087_x_at) / Fold change /veh FIZ1 (11724087_x_at) / RFU OASL (11726364_x_at) / Fold change /veh OASL (11726364_x_at) / RFU SOX15 (11748057_x_at) / Fold change /veh SOX15 (11748057_x_at) / RFU CD79A (11719716_a_at) / Fold change /veh CD79A (11719716_a_at) / RFU HIST1H1D (11736915_at) / Fold change /veh HIST1H1D (11736915_at) / RFU CASKIN2 (11723855_a_at) / Fold change /veh CASKIN2 (11723855_a_at) / RFU LOC730098 (11760151_x_at) / Fold change /veh LOC730098 (11760151_x_at) / RFU OR4N2 (11742367_at) / Fold change /veh OR4N2 (11742367_at) / RFU PRRT2 (11749266_a_at) / Fold change /veh PRRT2 (11749266_a_at) / RFU SNX32 (11753110_a_at) / Fold change /veh SNX32 (11753110_a_at) / RFU CDHR5 (11726645_a_at) / Fold change /veh CDHR5 (11726645_a_at) / RFU RCAN1 (11760418_a_at) / Fold change /veh RCAN1 (11760418_a_at) / RFU FAM167A (11723789_a_at) / Fold change /veh FAM167A (11723789_a_at) / RFU FAM26E (11764081_at) / Fold change /veh FAM26E (11764081_at) / RFU ISYNA1 (11749810_s_at) / Fold change /veh ISYNA1 (11749810_s_at) / RFU ACY1 (11761880_at) / Fold change /veh ACY1 (11761880_at) / RFU 11764098_at / Fold change /veh 11764098_at / RFU SAMD14 (11745864_x_at) / Fold change /veh SAMD14 (11745864_x_at) / RFU NPB (11741838_a_at) / Fold change /veh NPB (11741838_a_at) / RFU TMPRSS6 (11731388_a_at) / Fold change /veh TMPRSS6 (11731388_a_at) / RFU KRTAP10-2 (11738614_at) / Fold change /veh KRTAP10-2 (11738614_at) / RFU ARHGAP8 /// PRR5-ARHGAP8 (11727945_x_at) / Fold change /veh ARHGAP8 /// PRR5-ARHGAP8 (11727945_x_at) / RFU KRTAP5-7 /// NADSYN1 (11734609_at) / Fold change /veh KRTAP5-7 /// NADSYN1 (11734609_at) / RFU RASL12 (11751679_a_at) / Fold change /veh RASL12 (11751679_a_at) / RFU CDKN2B (11736163_a_at) / Fold change /veh CDKN2B (11736163_a_at) / RFU PRF1 (11729649_at) / Fold change /veh PRF1 (11729649_at) / RFU, ZNF638 /// ZNF638-IT1 / Fold change vs veh, ZNF638 /// ZNF638-IT1 / RFU, PANK3 / Fold change vs veh, PANK3 / RFU, SH3YL1 / Fold change vs veh, SH3YL1 / RFU, ZEB2 / Fold change vs veh, ZEB2 / RFU, NRIP1 / Fold change vs veh, NRIP1 / RFU, PTTG1IP / Fold change vs veh, PTTG1IP / RFU, CAPN2 / Fold change vs veh, CAPN2 / RFU, MED14 / Fold change vs veh, MED14 / RFU, SNORA58 / Fold change vs veh, SNORA58 / RFU, C1orf63 / Fold change vs veh, C1orf63 / RFU, LRRFIP1 / Fold change vs veh, LRRFIP1 / RFU, NDUFAF7 / Fold change vs veh, NDUFAF7 / RFU, SLC12A2 / Fold change vs veh, SLC12A2 / RFU, IBTK / Fold change vs veh, IBTK / RFU, ESF1 / Fold change vs veh, ESF1 / Fold change vs veh, TMEM50B / RFU, TAOK1 / Fold change vs veh, TAOK1 / RFU, ACBD3 / Fold change vs veh, ACBD3 / RFU, TMA16 / Fold change vs veh, TMA16 / RFU, RWDD3 / Fold change vs veh, RWDD3 / RFU, BCAT1 / Fold change vs veh, BCAT1 / RFU, EDEM3 / Fold change vs veh, EDEM3 / RFU, TMEM33 / Fold change vs veh, TMEM33 / RFU, WDR75 / Fold change vs veh, WDR75 / RFU, AHCTF1 / Fold change vs veh, AHCTF1 / RFU, TFRC / Fold change vs veh, TFRC / RFU, ZDHHC17 / Fold change vs veh, ZDHHC17 / RFU, NOM1 / Fold change vs veh, NOM1 / RFU, ARL8B / Fold change vs veh, ARL8B / RFU, ZBTB11 / Fold change vs veh, ZBTB11 / RFU, TAMM41 / Fold change vs veh, TAMM41 / RFU, KIAA1704 /// LOC100996395 / Fold change vs veh, KIAA1704 /// LOC100996395 / RFU, ING1 / Fold change vs veh, ING1 / RFU, TRMT61B / Fold change vs veh, TRMT61B / RFU, FUBP3 / Fold change vs veh, FUBP3 / RFU, TP53 / Fold change vs veh, TP53 / RFU, TNKS2 / Fold change vs veh, TNKS2 / RFU, ZFP14 / Fold change vs veh, ZFP14 / RFU, ACTR2 / Fold change vs veh, ACTR2 / RFU, PPP3R1 / Fold change vs veh, PPP3R1 / RFU, PIK3R1 / Fold change vs veh, PIK3R1 / RFU, HNRNPA1 / Fold change vs veh, HNRNPA1 / RFU, RNF170 / Fold change vs veh, RNF170 / RFU, ZNF28 / Fold change vs veh, ZNF28 / RFU, RNGTT / Fold change vs veh, RNGTT / RFU, OGT / Fold change vs veh, OGT / RFU, BRD1 / Fold change vs veh, BRD1 / RFU, MARS / Fold change vs veh, MARS / RFU, ZNF655 / Fold change vs veh, ZNF655 / RFU, FAHD1 / Fold change vs veh, FAHD1 / RFU, BDP1 / Fold change vs veh, BDP1 / RFU, LRRCC1 / Fold change vs veh, LRRCC1 / RFU, ARID1A / Fold change vs veh, ARID1A / RFU, ZNF146 / Fold change vs veh, ZNF146 / RFU, ZNF330 / Fold change vs veh, ZNF330 / RFU, GPN3 / Fold change vs veh, GPN3 / RFU, C9orf123 / Fold change vs veh, C9orf123 / RFU, N4BP2L2 / Fold change vs veh, N4BP2L2 / RFU, ARFIP1 / Fold change vs veh, ARFIP1 / RFU, FAM179B / Fold change vs veh, FAM179B / RFU, BCL10 / Fold change vs veh, BCL10 / RFU, UHRF1BP1L / Fold change vs veh, UHRF1BP1L / RFU, BET1 / Fold change vs veh, BET1 / RFU, CNOT2 / Fold change vs veh, CNOT2 / RFU, ZNF268 / Fold change vs veh, ZNF268 / Fold change vs veh, ZNF507 / RFU, DGCR2 / Fold change vs veh, DGCR2 / RFU, WDSUB1 / Fold change vs veh, WDSUB1 / Fold change vs veh, HSP90B1 /// MIR3652 / RFU, ADSS / Fold change vs veh, ADSS / RFU, GK / Fold change vs veh, GK / RFU, ZNF148 / Fold change vs veh, ZNF148 / RFU, TAF9 / Fold change vs veh, TAF9 / RFU, SLC1A5 / Fold change vs veh, SLC1A5 / RFU, SLMO2 / Fold change vs veh, SLMO2 / RFU, ABCC4 / Fold change vs veh, ABCC4 / RFU, LOC101060439 /// RAP1B / Fold change vs veh, LOC101060439 /// RAP1B / RFU, RFX7 / Fold change vs veh, RFX7 / RFU, GTPBP10 / Fold change vs veh, GTPBP10 / RFU, CNEP1R1 / Fold change vs veh, CNEP1R1 / RFU, BIVM-ERCC5 /// ERCC5 / Fold change vs veh, BIVM-ERCC5 /// ERCC5 / RFU, ILF3 / Fold change vs veh, ILF3 / RFU 11762660_at / Fold change /veh 11762660_at / RFU VCAN (11757783_s_at) / Fold change /veh VCAN (11757783_s_at) / RFU DDX43 (11728927_at) / Fold change /veh DDX43 (11728927_at) / RFU KRT8 (11758188_x_at) / Fold change /veh KRT8 (11758188_x_at) / RFU NKD1 (11759106_at) / Fold change /veh NKD1 (11759106_at) / RFU SRD5A1 (11742802_a_at) / Fold change /veh SRD5A1 (11742802_a_at) / RFU TPSAB1 /// TPSB2 (11721975_s_at) / Fold change /veh TPSAB1 /// TPSB2 (11721975_s_at) / RFU GSTM3 (11746129_a_at) / Fold change /veh GSTM3 (11746129_a_at) / RFU IL23R (11737362_x_at) / Fold change /veh IL23R (11737362_x_at) / RFU TMEM51 (11727254_a_at) / Fold change /veh TMEM51 (11727254_a_at) / RFU PIWIL2 (11732686_x_at) / Fold change /veh PIWIL2 (11732686_x_at) / RFU ORM1 (11744905_x_at) / Fold change /veh ORM1 (11744905_x_at) / RFU CCDC152 (11743942_at) / Fold change /veh CCDC152 (11743942_at) / RFU ECM1 (11717891_a_at) / Fold change /veh ECM1 (11717891_a_at) / RFU IL23R (11748794_a_at) / Fold change /veh IL23R (11748794_a_at) / RFU TNFAIP8L3 (11732012_x_at) / Fold change /veh TNFAIP8L3 (11732012_x_at) / RFU MBOAT4 (11741988_at) / Fold change /veh MBOAT4 (11741988_at) / RFU 11764193_at / Fold change /veh 11764193_at / RFU TMEM53 (11763286_at) / Fold change /veh TMEM53 (11763286_at) / RFU MAGEB2 (11727129_at) / Fold change /veh MAGEB2 (11727129_at) / RFU TMEM200A (11744735_a_at) / Fold change /veh TMEM200A (11744735_a_at) / RFU CCDC152 (11751479_a_at) / Fold change /veh CCDC152 (11751479_a_at) / RFU FAM211A (11726209_a_at) / Fold change /veh FAM211A (11726209_a_at) / RFU RGS16 (11746705_a_at) / Fold change /veh RGS16 (11746705_a_at) / RFU VCAN (11755009_s_at) / Fold change /veh VCAN (11755009_s_at) / RFU RHOB (11743442_s_at) / Fold change /veh RHOB (11743442_s_at) / RFU RGS16 (11720943_a_at) / Fold change /veh RGS16 (11720943_a_at) / RFU RGS16 (11720944_at) / Fold change /veh RGS16 (11720944_at) / RFU, VPS4B / Fold change vs veh, VPS4B / RFU, CREB1 / Fold change vs veh, CREB1 / RFU, DNAJC13 / Fold change vs veh, DNAJC13 / RFU, GNAQ / Fold change vs veh, GNAQ / RFU, CDK5R1 / Fold change vs veh, CDK5R1 / RFU, ZRANB3 / Fold change vs veh, ZRANB3 / RFU, CUL4A / Fold change vs veh, CUL4A / RFU, CCNY / Fold change vs veh, CCNY / RFU, UFL1 / Fold change vs veh, UFL1 / RFU, COG3 / Fold change vs veh, COG3 / RFU, DIAPH2 / Fold change vs veh, DIAPH2 / RFU, SKA2 / Fold change vs veh, SKA2 / RFU, AFF3 / Fold change vs veh, AFF3 / RFU, LMF1 / Fold change vs veh, LMF1 / RFU, IPO11 / Fold change vs veh, IPO11 / RFU, DFFB / Fold change vs veh, DFFB / RFU, FOXP1 / Fold change vs veh, FOXP1 / RFU, CARD8 / Fold change vs veh, CARD8 / RFU, STRN3 / Fold change vs veh, STRN3 / RFU, ADK / Fold change vs veh, ADK / RFU, RASSF2 / Fold change vs veh, RASSF2 / RFU, WIPF1 / Fold change vs veh, WIPF1 / RFU, LARP1B / Fold change vs veh, LARP1B / RFU, RASA1 / Fold change vs veh, RASA1 / RFU, RB1 / Fold change vs veh, RB1 / RFU, PPFIA1 / Fold change vs veh, PPFIA1 / RFU, MAT2A / Fold change vs veh, MAT2A / RFU, CCT5 / Fold change vs veh, CCT5 / RFU, WDR92 / Fold change vs veh, WDR92 / RFU, CUX1 / Fold change vs veh, CUX1 / RFU, TTC7A / Fold change vs veh, TTC7A / RFU, TMEM135 / Fold change vs veh, TMEM135 / RFU, DEPTOR / Fold change vs veh, DEPTOR / RFU, CPM / Fold change vs veh, CPM / RFU, DNAJB6 / Fold change vs veh, DNAJB6 / RFU, CACNA2D3 / Fold change vs veh, CACNA2D3 / RFU, DTX4 / Fold change vs veh, DTX4 / RFU, TFCP2 / Fold change vs veh, TFCP2 / RFU, GMCL1 /// GMCL1P1 / Fold change vs veh, GMCL1 /// GMCL1P1 / RFU, AEBP2 / Fold change vs veh, AEBP2 / RFU, SNHG1 /// SNORD22 /// SNORD25 /// SNORD26 /// SNORD27 /// SNORD28 /// SNORD29 /// SNORD31 / Fold change vs veh, SNHG1 /// SNORD22 /// SNORD25 /// SNORD26 /// SNORD27 /// SNORD28 /// SNORD29 /// SNORD31 / Fold change (Aza/veh), C12orf56 (ProbeSet 11735607_a_at) / Fold change (ACY-1035/veh), C12orf56 (ProbeSet 11735607_a_at) / Fold change (Aza/veh), FGFR1OP (ProbeSet 11751329_s_at) / Fold change (ACY-1035/veh), FGFR1OP (ProbeSet 11751329_s_at) / Fold change (Aza/veh), VPS36 (ProbeSet 11739960_a_at) / Fold change (ACY-1035/veh), VPS36 (ProbeSet 11739960_a_at) / RFU SYPL1 (11715823_x_at) / Fold change /veh SYPL1 (11715823_x_at) / RFU IGFBP7 (11715501_s_at) / Fold change /veh IGFBP7 (11715501_s_at) / RFU REEP3 (11722064_at) / Fold change /veh REEP3 (11722064_at) / RFU IGLL1 (11728026_x_at) / Fold change /veh IGLL1 (11728026_x_at): dose or concentration left out as unconfirmed
Conditions: ProbeSet 11748670_a_at; LIST B

Q: `Nc1ccc(-c2cccs2)cc1NC(=O)c1ccc2c(c1)cc(C1CC1)n2CCN1CCOCC1` [ACY-1035] was tested. Which “RFU, PIK3R1” value did it give?
A: 70.67 RFU
